# Source: paper PMC9895975 (Scientific Reports, 2023)
# Experiments:
# [1] = Sedimentation equilibrium in the analytical ultracentrifuge (SE-AUC, SEDFIT-MSTAR); format: physicochemical; conditions: for concentration from which the self-association (Mw,app) plateaus: range 0-10 mg/mL, hinge point and M* methods
# Description: (§1) Teicoplanin samples were prepared in a phosphate-chloride buffered saline solution (PBS, or “Paley buffer”) at pH ~ 6.8 and, by adding NaCl, adjusted to an ionic strength of I = 0.1 mol/L[38].
# Sedimentation equilibrium experiments were used to obtain equilibrium concentration distribution profiles for absolute molecular weight measurement. An Optima XL-I analytical ultracentrifuge was also employed but at a lower temperature of 7 °C because of the longer duration of a sedimentation equilibrium experiment compared to sedimenation veloicity. To characterise the self-association/aggregation of teicoplanin, 12 mm double sector epoxy cells were loaded with the same volumes (100 μL ) of both solution and solvent and run at 45,000 rpm for a run time of ~ 48 h. Records of concentration distributions of teicoplanin at equilibrium were subsequently analysed using the model-independent SEDFIT-MSTAR algorithm. Since the non-ideality of teicoplanin is negligible we estimated that apparent weight average molar masses Mw,app were approximately equal to the true weight average molar masses Mw. The multiple concentrations used effectively represent repeats for the sedimentation equilibrium (and sedimentation velocity) experiments.
# To determine the weight-average molar masses Mw of teicoplanin, the M* extrapolation method[45] and hinge point analysis, both incorporated in the sedimentation equilibrium-based SEDFIT–MSTAR software[44] were used. […] Rayleigh interference optics provides an accurate record of a sedimentation equilibrium concentration profile c(r) vs r, which means that the local concentration c(r) at the radial position r (cm) is from the rotation centre. M*(r) is a useful operational point average molar mass parameter. M*(r → rb) = Mw is the weight average molar mass over the whole macromolecular distribution, where r is the radial position at the cell base. This method is particularly advantageous for polydisperse/ or self-associating systems. As an additional check, the “hinge point method” (the value of the point weight average molar mass, Mw(r) at the “hinge point” in the sedimentation equilibrium distribution, i.e. the radial position in the cell where the local concentration c(r) = the original loading concentration) provides another estimate for the whole distribution molar mass Mw[44].
# [2] = Sedimentation velocity in the analytical ultracentrifuge (SV-AUC); format: physicochemical; conditions: for concentration above which the sedimentation coefficient distribution is unimodal (assembled form): SEDFIT
# Description: as §1
# Experiments to determine sedimentation coefficients and sedimentation coefficient distributions were performed at a temperature of 20.0 °C (at which standardised values are easily calculated) using an Optimal XL-I analytical ultracentrifuge (Beckman Instruments, Palo Alto, CA, USA) with Rayleigh interference optics. Teicoplanin samples (400 μL ) and reference solvent (PBS, 420 μL ) were injected into channels of the 12 mm double sector epoxy cells with sapphire windows. These cells were then centrifuged at 47,500 rpm for a run time of ~ 24 h and the data obtained were analysed in SEDFIT using the least squares, ls-g*(s) processing method. This generates the sedimentation coefficient distribution, g(s) versus sT,b , where sT,b is the sedimentation coefficient, at temperature T in buffer b. The s value in Svedberg units, S = 10^-13 seconds, was then normalised to standard conditions (density ρ20,w and viscosity η20,w of water at 20.0 °C) to give s20,w from the Eq. [43]:2 s20,w=1-υ¯·ρ20,w/1-υ¯·ρT,b·ηT,b/η20,w·sT,b where ρT,b and ηT,b are the density and the viscosity of buffer b at temperature T, respectively.
# [3] = Intrinsic viscosity, capillary (rolling ball) viscometry; format: physicochemical; conditions: 10.2 mg/mL; 25.0 °C; rolling ball viscometer AMVn; Solomon-Ciuta relation; phosphate-chloride buffer pH 6.8, I = 0.10 M
# Description: Teicoplanin solutions were analysed using the capillary viscometer AMVn (Anton-Paar, Graz, Austria). This measurement was conducted at a temperature of 25.0 °C based on the rolling ball viscosity method. With a 1.4 mm steel ball moving in a 1.6 mm diameter glass capillary, the flow times (averaged over repeat measurements) of the solvent and solution were then determined. The relative viscosity was calculated from the equation:4 ηrel=ρ·t/ρ0·t0=ηsp+1 where ηsp is the specific viscosity. Then the intrinsic viscosity η was estimated from the Solomon-Ciuta relation[52] at a concentration of 10.2 mg/ml, which gave a sufficient flow time increment between solvent and solution:5 η≈1/c·2ηsp-2lnηrel^1/2
# [4] = Hydrodynamic radius by dynamic light scattering (DLS); format: physicochemical; conditions: 12.5 mg/mL; 20.0 °C; scattering angle 173°; Zetasizer Nano-S; averaged over several measurements
# Description: Dynamic or quasi-elastic light scattering (DLS or QLS) measurements were made on the fixed scattering angle Zetasizer Nano-S system (Malvern instruments Ltd., Malvern UK) equipped with a 4mW He–Ne laser at a wavelength of 632.8nm[46],[47]. Samples in solution were measured in a quartz cuvette at 20.0 °C. A scattering angle of 173° was used, and collected in manual mode, requiring a measurement duration of 90 s, averaged over several measurements. The resulting data were analysed using the “Zetasizer Software (Version 7.1)” (Malvern Instruments Ltd., Malvern, UK), providing a volume distribution of translational diffusion coefficients based on a form of the CONTIN program. The viscosity of the buffer used was calculated using a solvent builder interface and takes the effects of buffer salts into account. The z-average hydrodynamic radii rz (nm), were evaluated from the z-average translational diffusion coefficients Dz by the Stokes–Einstein Eq. [47]:3 rz=kBT/{6πηoDz} where kB is the Boltzmann constant, T is the absolute temperature and η is the viscosity of the medium. […] (ii) the teicoplanin in its monomeric and multi-meric form were quasi-spheroidal and not asymmetric so there was no angular dependence of the measured Dz, values on anisotropic rotational diffusion effects—i.e. an extrapolation to zero angles was not necessary.
# [5] = Global hydrodynamic fit SingleHYDFIT (E2 protocol); format: physicochemical; conditions: assumed molar mass of 18-mer (33835 Da) and of 19-mer (35714 Da), same result for both
# From the text: To check this, we use a global fitting approach known as SingleHYDFIT[54] which combines intrinsic viscosity data with sedimentation coefficient and dynamic light scattering (hydrodynamic radius) data together, along with the molecular weight and partial specific volume. It involves the minimization of a global fitting function (Fig. 7). The E2 protocol (ratio of ellipsoid) was chosen and run twice: once with an assumed molar mass equivalent of an 18-mer (33835 Da) and once again with an assumed molar mass of 19-mer (35714 Da). Delta (Δ) was plotted against axial ratio, where values < 1 mean oblate and > 1 mean prolate (Fig. 7).
# [6] = below that value a gel might be formed in solution; cited from earlier work
# Description: Although it is important to explore how teicoplanin binds to the Lipid II moiety regardless of its phenotypes, the knowledge of the biological form of teicoplanin in an aqueous solution is of importance. Teicoplanin and its aglycon derivatives[25] use their long […] chain to attach themselves to the targeted sites. It is known that the minimum volume of solvent required to dissolve 400 mg of teicoplanin is 3 ml because, below that value, a gel might be formed in solution[10]. Teicoplanin derivatives have also been reported to create nano-sized aggregates in aqueous solution[26]. This gelati ...
# [7] = Conformational analysis from intrinsic viscosity (ELLIPS1, Einstein-Simha shape factor); format: physicochemical; conditions: for axial ratio (a/b) oblate / axial ratio (a/b) prolate: ELLIPS1; for viscosity shape function ν: [η] = 3.2 mL/g; for swelling ratio vs/υ¯ through dynamic hydration: maximum value, corresponds to a/b = 1 (sphere), confirmed by SingleHYDFIT
# From the text: In order to interpret this in terms of a molecular shape account needs to be taken of the contribution of the swollen specific volume of the assembly in solution vs (which will be swollen due to a time-averaged association with the surrounding solvent through dynamic hydrogen bonding and other associative processes)[43]:6 [η]=ν.vs
# Equation (6) ν is the Einstein-Simha shape factor. vs is likely to be higher for the glycopeptide than for proteins due to the relatively large proportion of carbohydrate which tends to have a greater affinity for solvent. In Table 1 values of the shape factor ν , and their corresponding ellipsoid of revolution axial ratios a/b were calculated based on either a prolate or oblate model, using the routine ELLIPS1 (Harding et al. 1997) for 3 cases of vs/ υ¯ , including the (unlikely) case of no swelling vs/ υ¯ = 1. The maximum value for vs/ υ¯ ~ 2, which corresponds to the minimum value of a/b = 1 (i.e. a sphere, Fig. 6), and this seems the most likely scenario.
# [8] = Sedimentation equilibrium in the analytical ultracentrifuge (SE-AUC, SEDFIT-MSTAR); format: physicochemical; conditions: M* method, 0-10 mg/mL, corresponds to the unimer
# [9] = tested on: SARS-CoV virus; conditions: cited from earlier work
# [10] = Partial specific volume from solution/solvent densities (digital density meter); format: physicochemical; conditions: c = 10.2 mg/mL; Anton-Paar digital density meter; PBS
# Description: The partial specific volume υ¯ from solution/ solvent densities was determined using an Anton-Paar (Graz, Austria) digital density meter, and application of:1 υ¯=1/ρ0·1-ρ-ρ0/c at a concentration, c, of 10.2 mg/mL, and where ρ and ρ0 are the densities of the solution and solvent, respectively.
# [11] = without a lipid chain; cited from earlier work
# [12] = tested on: CTSL-dependent viruses; conditions: cited from earlier work
# [13] = phosphate-chloride buffer pH 6.8, I = 0.10 M, 7 °C, SEDFIT-MSTAR
# [14] = assumed vs/υ¯ = 1 (no swelling)
substance,measurement,setting,value
teicoplanin A2,"number of monomers in the assembly (mers), M* method","[1]; from plateau Mw 33,000 g/mol, buffer pH 6.8, I = 0.10 M",~ 18 mers
same,"number of monomers in the assembly (mers), hinge point method","[1]; from plateau Mw 35,400 g/mol, buffer pH 6.8, I = 0.10 M",~19 ± 1 mers
same,"plateau weight average molar mass Mw,app, M* method","[1]; phosphate-chloride buffer pH 6.8, I = 0.10 M, 7 °C, 45,000 rpm, ~48 h, SEDFIT-MSTAR, c from 1 mg/mL","33,000 ± 1000 g/mol"
same,"plateau weight average molar mass Mw,app, hinge point method","[1]; phosphate-chloride buffer pH 6.8, I = 0.10 M, 7 °C, 45,000 rpm, ~48 h, SEDFIT-MSTAR, c from 1 mg/mL up to 10 mg/mL","35,400 ± 1000 g/mol"
same,apparent weight average molar mass Mw extrapolated to zero concentration (M* method),[1]; [13],1.9 ± 0.1 kDa
same,"weight average molar mass extrapolated to zero concentration, hinge point method Mw(rhinge)",[1]; [13],2.7 ± 0.1 kDa
same,"concentration from which the self-association (Mw,app) plateaus","[1]; phosphate-chloride buffer pH 6.8, I = 0.10 M",> 1000 µg/mL
same,"concentration from which the self-association (Mw,app) plateaus","[1]; phosphate-chloride buffer pH 6.8, I = 0.10 M, listed as teicoplanin",1000 µg/mL
same,"size of the self-associated assembly (n-mer), overall","[1]; phosphate-chloride buffer pH 6.8, I = 0.10 mol/L, AUC and viscometry combined",18–19 mer
same,s-value (not normalised) of teicoplanin dissolved in 6 M GuHCl,"[2]; 6 M GuHCl, SV-AUC",~ 0.7 S
same,"s20,w of teicoplanin dissolved in 6 M GuHCl","[2]; 6 M GuHCl, SV-AUC, normalised to water at 20.0 °C",1.17 ± 0.01 S
same,"sedimentation coefficient s20,w of the self-associated assembly (upper extrapolated value)","[2]; phosphate-chloride buffer pH 6.8, I = 0.10 M, 20.0 °C, 47,500 rpm, ~24 h, Rayleigh interference optics, SEDFIT ls-g*(s), s vs c plot, 0-5 mg/mL",~ 4.65 S
same,concentration above which the sedimentation coefficient distribution is unimodal (assembled form),"[2]; phosphate-chloride buffer pH 6.8, I = 0.10 M, 20.0 °C",> 500 µg/mL
same,concentration above which the sedimentation coefficient distribution is unimodal (assembled form),"[2]; phosphate-chloride buffer pH 6.8, I = 0.10 M, 20.0 °C, listed as teicoplanin",> 500 µg/mL
same,"sedimentation coefficient, lower extrapolated value (predicted value for a spheroidal unimer)","[2]; phosphate-chloride buffer pH 6.8, I = 0.10 M, 20.0 °C, s vs c plot extrapolated to low concentration",~ 0.7 S
same,"concentration below which the assembly dissociates (separation, bimodality)","[2]; phosphate-chloride buffer pH 6.8, I = 0.10 mol/L, 20.0 °C",< 500 µg/mL
same,intrinsic viscosity [η],[3],3.2 ± 0.1 mL/g
same,z-average hydrodynamic radius rz,[4],~ 3.2 nm
same,axial ratio of the assembly from SingleHYDFIT,[5],1.0 ± 0.0
same,minimum volume of solvent required to dissolve 400 mg,[6],3 mL
same,swollen specific volume vs,[7]; [14],0.64 mL/g
same,axial ratio (a/b) oblate,[7]; [14],5.4
same,axial ratio (a/b) prolate,[7]; [14],4.3
same,viscosity shape function ν,[7]; [14],5.0
same,swollen specific volume vs,[7]; assumed vs/υ¯ = 1.5,0.96 mL/g
same,axial ratio (a/b) oblate,[7]; assumed vs/υ¯ = 1.5,2.8
same,axial ratio (a/b) prolate,[7]; assumed vs/υ¯ = 1.5,2.5
same,viscosity shape function ν,[7]; assumed vs/υ¯ = 1.5,3.3
same,swollen specific volume vs,[7]; assumed vs/υ¯ = 2,1.28 mL/g
same,axial ratio (a/b) oblate,[7]; assumed vs/υ¯ = 2,1
same,axial ratio (a/b) prolate,[7]; assumed vs/υ¯ = 2,1
same,viscosity shape function ν,[7]; assumed vs/υ¯ = 2,2.5
same,swelling ratio vs/υ¯ through dynamic hydration,[7],~ 2
same,swelling ratio vs/υ¯ through dynamic hydration,[7]; listed as teicoplanin,2
same,weight-average molar mass Mw in 6 M GuHCl,[8],1.75 ± 0.35 kDa
same,effect on cell entry of the SARS-CoV virus,[9],inhibited cell entry
same,partial specific volume υ¯,[10],0.64 ± 0.01 mL/g
teicoplanin aglycon,self-association in solution,[11],dimerise weakly
vancomycin,antiviral activity against CTSL-dependent viruses,[12],cannot express antiviral activity
